What was measured:
Plasmodium falciparum [1] = assay: NOVARTIS: Inhibition of Plasmodium falciparum W2 (drug-resistant) proliferation in erythrocyte-based infection assay; format: functional, organism-based; conditions: Plasmodium falciparum, W2; read-out: EC50
Plasmodium falciparum [2] = assay: NOVARTIS: Inhibition of Plasmodium falciparum 3D7 (drug-susceptible) proliferation in erythrocyte-based infection assay; format: functional, organism-based; conditions: Plasmodium falciparum, 3D7
[3] = NOVARTIS: Cytotoxicity against human hepatocellular carcinoma cell line (Huh7); format: toxicity, cell-based, Huh-7; conditions: Huh7 cells (hepatocellular carcinoma cell line)

| Structure (SMILES) | EC50 (Plasmodium falciparum [1]) [nM] | EC50 (Plasmodium falciparum [2]) [nM] | CC50 [3] [nM] |
| --- | --- | --- | --- |
| O=C1/C(=C\c2ccccc2)SC(=Nc2ccccc2)N1C1CCCCC1 | 545 | 348 | > 100000 |
| CCOC(=O)c1cnc2ccc(CC)cc2c1O | 525 | 716 | > 100000 |
| O=C(COc1ccccc1)NC(c1ccc([N+](=O)[O-])cc1)c1cc(Cl)c2cccnc2c1O (stereo not drawn) | 434 | 605 | > 80600 |
| Cc1cc(NC(=O)c2ccc(S(=O)(=O)N(Cc3ccccc3)C(C)C)cc2)no1 | 538 | 2690 | > 100000 |
| N=c1c2ccccc2nnn1-c1ccc(C(F)(F)F)cc1 | 575 | 392 | > 100000 |
| COc1ccc2c(c1)c(C)cc[n+]2Cc1ccccc1 | 118 | 86.2 | 20700 |
| O=c1cc[nH]c2cc(N3CCCCCC3)c(F)cc12 | 497 | 1310 | > 92000 |
| CCc1c(C)c(=N)c2ccccc2n1C | 534 | 701 | > 100000 |
| C=C(C)CSc1nc(N)c2c3c(sc2n1)CN(CCC)CC3 | 383 | 799 | > 66300 |
| CCCCc1c(C)nc2ccc(Br)cc2c1O | 532 | 1960 | > 100000 |
| COCCCNc1nc2cc(OC)c(OC)cc2c2nc(-c3ccccc3)nn12 | 541 | 621 | > 100000 |
| CN1CCN(Cc2c(O)ccc3c(=O)c(Oc4ccc(C(C)(C)C)cc4)c(C(F)(F)F)oc23)CC1 | 547 | 1800 | > 100000 |
| CCOc1ccc(NC(=O)c2ccc(F)c(S(=O)(=O)NC3CCCC(C)C3C)c2)cc1 (stereo not drawn) | 178 | 1040 | 32200 |
| CN(C)c1ccc(C2N(C)c3ccccc3N2C)cc1 | 551 | 913 | > 100000 |
| Cc1n(C)c2ccccc2[n+]1CC(=O)c1ccccc1 | 547 | 114 | > 100000 |
| C=CCSc1nnc2c(n1)[nH]c1ccc(OCC)cc12 | 549 | 5620 | > 100000 |
| COc1ccc(CNCCN2CCN(c3ccccc3)C[C@@H]2Cc2ccc(O)cc2)cc1 | 54.9 | 52.1 | > 10000 |
| O=C1CN(C(=O)CCC2CCCCC2)C(c2ccc(F)cc2)c2cc(F)ccc2N1 (stereo not drawn) | 365 | 566 | 64400 |
| OC(CNc1cccc2ccccc12)Cn1c2ccc(Cl)cc2c2cc(Cl)ccc21 (stereo not drawn) | 306 | 403 | 54200 |
| CC(C)(C[N+](C)(C)C)C1OC2CCCCC2C2C=CCCC21 (stereo not drawn) | 565 | 999 | > 100000 |
| O=C(NC1CC1)c1ccc(CSCc2ccccc2Cl)o1 | 562 | 503 | > 100000 |
| O=C(NCc1c(Cl)cccc1Sc1ccc(Cl)cc1)c1ccc2c(c1)CCO2 | 56.2 | 69.1 | > 10000 |
| O=C(c1ccc([N+](=O)[O-])cc1)c1ccc(Cl)c(Cl)c1 | 555 | 251 | > 100000 |
| Clc1ccc(Nc2nc(Nc3ccc(Cl)cc3)c3ccccc3n2)cc1 | 110 | 148 | 19600 |

| Structure (SMILES) | EC50 (Plasmodium falciparum [1]) [nM] | EC50 (Plasmodium falciparum [2]) [nM] | CC50 [3] [nM] |
| --- | --- | --- | --- |
| CN1C=CC(=Cc2sc3ccccc3[n+]2C)C=C1 | 558 | 208 | > 100000 |
| CCn1c(=NC(=O)c2cc(=O)c3ccccc3o2)sc2c(OC)ccc(OC)c21 | 55.6 | 1500 | > 10000 |
| CCOc1cc(Br)cc(C=C2NC(=S)NC2=O)c1O | 554 | > 3680 | > 100000 |
| Cc1ccn2c(NC(C)(C)CC(C)(C)C)c(-c3ccccc3OC(=O)C3C[C@H]3c3ccccc3)nc2c1 (stereo partly drawn) | 55.3 | 727 | > 10000 |
| CCc1nc2nc(C)cc(Nc3ccc(F)c(Cl)c3)n2n1 | 547 | 543 | > 100000 |
| COc1ccc(C(NC(=O)c2cccnc2)c2cc(Cl)c3cccnc3c2O)cc1 (stereo not drawn) | 528 | 945 | > 100000 |
| Oc1ccccc1C=Nc1ccccc1[Te]c1ccccc1N=Cc1ccccc1O | 3.14 | 3.49 | 552 |
| Cc1ccc2c(C)nc(Nc3nc(C)cc(-c4ccccc4)n3)nc2c1 | 569 | 975 | > 100000 |
| Cc1cccc(NC(c2ccccc2F)c2ccc3cccnc3c2O)n1 (stereo not drawn) | 331 | 2940 | > 61800 |
| CCCOC(=O)C1=C(C)NC2=C(C(=O)CC(c3ccc(Cl)cc3)C2)C1c1ccc(Cl)cc1 (stereo not drawn) | 398 | 294 | > 69800 |
| CCCCC(=O)Oc1ccccc1-c1nc2cc(C)ccn2c1NC(C)(C)CC(C)(C)C | 57 | 854 | > 10000 |
| CCOC(=O)C1=C(C)NC2=C(C(=O)CCC2)C1c1ccc([N+](=O)[O-])cc1 (stereo not drawn) | 570 | 902 | > 100000 |
| COC(=O)c1c(OCc2ccc(F)cc2)cc(=O)n2c1CCN(Cc1ccccc1)CC2 | 538 | 3940 | > 100000 |
| Cc1cccc(NC(c2ccncc2)c2ccc3cccnc3c2O)n1 (stereo not drawn) | 375 | 669 | 69900 |
| Cc1cc(C)cc(Nc2cc(C)nc3nc(C)nn23)c1 | 536 | 594 | > 100000 |
| Cc1cccc(C2Sc3ccccc3N=C3c4ccccc4C(=O)C32)c1 (stereo not drawn) | 140 | 300 | 24400 |
| O=C(CSc1ccc2nnc(-c3cccs3)n2n1)Nc1ccc2c(c1)OCCO2 | 573 | 447 | > 100000 |
| Cc1cc2c(cc1C)N(C(=O)c1ccccc1)C(C)(C)c1ssc(=S)c1-2 | 572 | 600 | > 100000 |
| COc1cc(OC)cc(C(=O)Oc2ccccc2-c2nc3cc(C)ccn3c2NC(C)(C)CC(C)(C)C)c1 | 54 | 946 | > 10000 |
| COc1ccc(NC(=O)C=Cc2ccccc2Cl)cc1 | 577 | 972 | > 100000 |
| C=CCOc1c(Br)cc(C=c2sc3n(c2=O)C(c2ccc(OC)c(OC)c2)C(C(=O)OCC)=C(C)N=3)cc1OC (stereo not drawn) | 576 | > 12500 | > 100000 |
| O=C(Nc1ccc(-n2cnnn2)cc1)C1CCN(Cc2ccc(OC(F)F)cc2)CC1 | 266 | 1590 | 46300 |
| Clc1cccc(-c2cn3ccnc3c(N3CCN(c4ccncc4)CC3)n2)c1 | > 52.6 | > 1250 | > 10000 |
| COc1ccc(OC)c(C2C3=C(CC(C)(C)CC3=O)N(c3ccc(Cl)c(Cl)c3)C3=C2C(=O)CC(C)(C)C3)c1 | 546 | 430 | > 100000 |

| Structure (SMILES) | EC50 (Plasmodium falciparum [1]) [nM] | EC50 (Plasmodium falciparum [2]) [nM] | CC50 [3] [nM] |
| --- | --- | --- | --- |
| Cc1nc2ccccc2n1S(C)(=O)=O | 54.3 | 59.6 | > 10000 |
| CC(C)CNC(=O)c1cnc(NCCCN2CCCCC2C)nc1NC1CCCC1 (stereo not drawn) | 52.8 | 910 | > 10000 |
| O=C(/C=C/c1cccnc1)C12CC3CC(CC(C3)C1)C2 | 52.8 | 102 | > 10000 |
| CCCCNC(=O)C(CC(C)C)N1C(=O)c2cc(NC(C)=O)ccc2NC(=O)[C@@H]1C (stereo partly drawn) | 67.2 | 28.2 | > 12800 |
| Cc1ccccc1CN1CCN(CC=Cc2ccccc2)CCC1=O | 531 | 1430 | > 100000 |
| Cc1cc(N2CCN(Cc3ccc(F)cc3)CC2)n2c(nc3ccccc32)c1C#N | 530 | 625 | > 100000 |
| CCN1CCN(Cc2cc(Cl)cc(Cl)c2O)CC1 | 529 | 3000 | > 100000 |
| COc1ccc(-c2c[n+](CC(=O)c3ccccc3)c3n2CCC3)cc1 | 571 | 1200 | > 100000 |
| Cc1nc(N2CCC(C)CC2)c2c(C)c(C(=O)Nc3ccc(C(F)(F)F)cc3)sc2n1 | 562 | > 12500 | > 100000 |
| CCCN(CCC)S(=O)(=O)c1cc(Br)cc2c1N(C(C)=O)CC2 | 561 | 1990 | > 100000 |
| CCOc1ccc(CCNC(=O)c2cccs2)cc1OCC | 560 | 890 | > 100000 |
| CCc1ccc(C2C(C(=O)Nc3ccccc3)=C(C)Nc3c(C(=O)Nc4ccc(C)cc4)cnn32)cc1 (stereo not drawn) | 554 | 1500 | > 100000 |
| Cc1cc(C)cc(NC2=C(N)C(=O)c3ccccc3C2=O)c1 | 551 | 969 | > 100000 |
| CCOC(=O)c1nnn(-c2nonc2N)c1-c1ccc(OC)cc1 | 564 | 653 | > 100000 |
| CCOC(=O)C1CCN(C(=O)c2cc(C(C)(C)C)nn2Cc2ccc(Cl)cc2Cl)CC1 | 576 | 340 | > 100000 |
| CCCNC1=C(N(C(C)=O)c2cccc(F)c2)C(=O)c2ccccc2C1=O | 28.4 | 29 | 5390 |
| COc1ccc(-c2c[n+](CC(=O)c3cccc(OC)c3)c3n2CCC3)cc1 | 530 | 954 | > 100000 |
| CC(C)(C)c1nn(-c2ccc(Cl)cc2)c2[nH]c(=O)c(CNCc3ccccc3)cc12 | 539 | 731 | > 100000 |
| CCOC(=O)C1CCN(C(c2cc3cc(OC)c(OC)cc3[nH]c2=O)c2nnnn2C(C)(C)C)CC1 (stereo not drawn) | 567 | 889 | > 100000 |
| CCCCSCC(O)CN1CCCCC1 (stereo not drawn) | 534 | 5280 | > 100000 |
| CCN(CC)CCNc1ncnc2c1[nH]c1ccc(F)cc12 | 169 | 277 | 31500 |
| O=S(=O)(c1ccc(Cl)cc1)N1CCN(C(=S)NCc2ccco2)CC1 | 524 | 973 | > 100000 |
| C=CC[n+]1c(C=C2C=CN(C)C=C2)sc2ccccc21 | 140 | 172 | 24600 |

From ChEMBL document CHEMBL1156829 (Proc Natl Acad Sci U S A, 2008)
